IC50 and EC50 data for 19 compounds are collected here from patent publication US8466162B2, “5-alkynyl-pyridines” (Boehringer Ingelheim International GmbH, priority 2011, dated 2013).

As a reminder, the IC50 is the midpoint of a concentration-inhibition curve. The term EC50 denotes the concentration at which the effect is half-maximal. A high value points to lower potency in that assay.

One assay deals with T1, PI3Kalpha (Homo sapiens, UniProt P42336).
T1 construct: His (N); made in house; host or cells: SF9 insect cells (baculovirus co-infection)
T1 sequence (P27986 whole entry): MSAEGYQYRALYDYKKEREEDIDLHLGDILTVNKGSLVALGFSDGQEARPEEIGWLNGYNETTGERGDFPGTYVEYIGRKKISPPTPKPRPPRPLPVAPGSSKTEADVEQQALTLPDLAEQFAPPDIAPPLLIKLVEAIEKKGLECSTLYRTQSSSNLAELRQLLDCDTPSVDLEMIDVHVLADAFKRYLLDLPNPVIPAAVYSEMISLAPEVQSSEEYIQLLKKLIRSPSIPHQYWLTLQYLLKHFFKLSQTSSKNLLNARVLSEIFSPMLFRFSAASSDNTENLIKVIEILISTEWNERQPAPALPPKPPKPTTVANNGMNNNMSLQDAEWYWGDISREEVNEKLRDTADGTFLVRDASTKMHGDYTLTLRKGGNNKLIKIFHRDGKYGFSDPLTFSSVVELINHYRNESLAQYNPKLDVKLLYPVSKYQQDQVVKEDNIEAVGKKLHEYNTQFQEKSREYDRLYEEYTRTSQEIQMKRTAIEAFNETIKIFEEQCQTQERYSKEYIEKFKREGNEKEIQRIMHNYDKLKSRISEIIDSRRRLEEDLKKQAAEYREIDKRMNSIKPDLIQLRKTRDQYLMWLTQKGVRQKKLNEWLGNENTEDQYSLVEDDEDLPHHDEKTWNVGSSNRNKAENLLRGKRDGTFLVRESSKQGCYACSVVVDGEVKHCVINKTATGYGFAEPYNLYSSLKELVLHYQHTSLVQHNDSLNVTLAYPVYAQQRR
T1 sequence (P42336 whole entry): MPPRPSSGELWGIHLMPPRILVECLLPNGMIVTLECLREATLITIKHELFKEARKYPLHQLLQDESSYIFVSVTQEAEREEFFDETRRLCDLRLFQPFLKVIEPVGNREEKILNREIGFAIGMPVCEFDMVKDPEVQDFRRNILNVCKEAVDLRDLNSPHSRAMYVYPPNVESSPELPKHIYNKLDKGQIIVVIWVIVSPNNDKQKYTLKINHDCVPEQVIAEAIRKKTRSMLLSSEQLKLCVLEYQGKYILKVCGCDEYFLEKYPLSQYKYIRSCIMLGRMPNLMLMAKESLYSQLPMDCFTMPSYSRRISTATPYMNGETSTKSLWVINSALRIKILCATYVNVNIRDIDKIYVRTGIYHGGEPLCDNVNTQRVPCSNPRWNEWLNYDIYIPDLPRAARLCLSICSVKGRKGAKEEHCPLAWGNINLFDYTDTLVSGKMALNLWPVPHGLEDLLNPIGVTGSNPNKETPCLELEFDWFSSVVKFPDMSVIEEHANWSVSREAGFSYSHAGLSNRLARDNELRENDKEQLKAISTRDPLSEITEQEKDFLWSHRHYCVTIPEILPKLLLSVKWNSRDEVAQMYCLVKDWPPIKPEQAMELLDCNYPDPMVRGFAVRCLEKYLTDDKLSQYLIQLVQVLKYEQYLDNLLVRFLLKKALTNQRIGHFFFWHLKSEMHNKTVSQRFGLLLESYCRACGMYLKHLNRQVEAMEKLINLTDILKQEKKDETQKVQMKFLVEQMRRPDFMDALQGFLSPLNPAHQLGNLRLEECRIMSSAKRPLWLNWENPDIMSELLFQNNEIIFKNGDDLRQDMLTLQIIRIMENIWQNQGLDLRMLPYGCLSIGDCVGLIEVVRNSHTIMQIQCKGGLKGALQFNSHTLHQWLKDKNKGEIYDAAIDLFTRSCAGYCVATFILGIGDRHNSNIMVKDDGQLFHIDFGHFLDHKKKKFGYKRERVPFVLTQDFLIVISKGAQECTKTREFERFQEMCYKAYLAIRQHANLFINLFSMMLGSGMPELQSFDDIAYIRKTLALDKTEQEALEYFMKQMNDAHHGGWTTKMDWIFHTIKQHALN
Description: Inhibition of PI3Kalpha-induced PIP-2 phosphorylation (filter-binding assay, 33P-ATP). The class given is biochemical. The conditions noted are these: PI3 Kinase alpha (p85alpha/His-p110alpha), 1 μM ATP; read-out: IC50 PI3Kα. How it is done:
Biological Methods Inhibition of PI3Kalpha-Induced PIP-2 Phosphorylation
See also J. A. Engelman, Nature Reviews Cancer, 2009, 9, 550-562; A. Carnero, Expert Opin. Investig. Drugs, 2009, 18, 1265-1277 and P. Liu et al., Nature Reviews Drug Discovery, 2009, 8, 627-64.
Method Type: Filter-Binding-Assay
Aliquoted in desired amounts and stored at −80° C. […] Assay Procedure
The substrate-containing lipid vesicles are dissolved to a concentration of 0.637 mg lipid blend/ml assay buffer (with BSA, freshly added) in 50 ml Falcon ->keep on ice, followed by ultrasonication (pulse of 15 sec followed by a pause of 10 sec, 4×). Compounds are serially diluted in assay buffer+6% DMSO and 10 μl of each dilution is added per well of a 96-well plate (compounds are tested in duplicates) and mixed with 30 μl of the lipid vesicles containing PDGFR-Peptide (0.5 μM final) and PI3K alpha (25 ng/well final). The mixture is then incubated for 20 minutes at room temperature.
Subsequently, 20 μl of assay buffer containing 3 μM cold ATP and 0.5 μCi/20 μl 33P-ATP are added. The plates are then incubated at room temperature for 120 minutes (shaking with 300 rpm).
The reaction mix is transferred onto filter plates using “filtermate harvester” from Packard: filter plates are rinsed with PBS, then the reaction mix is filtered onto the filter plate, washed 5 times with PBS and are allowed to dry for 30-60 minutes at 50° C. The plate bottom is sealed with Perkin Elmer white adhesive foil and 25 μl/well Microscint0 are added, the top is covered with transparent adhesive foil and the plate is measured with Wallac Trilux 1450 Microbeta Counter.
As positive control serve wells containing vehicle controls (1% DMSO in assay buffer), showing non-inhibited kinase activity (high values). Wells containing assay buffer instead of enzyme can serve as control for background activity (low values).
Calculate IC50 values using the Smiley program (based on GrapPad Prism)

A further assay relates to MCF7 cells. Description: alamarBlue MCF7 cell assay (antiproliferative/cytotoxicity). The class given is cell-based. The conditions noted are these: MCF7 human breast cancer cell line. An excerpt:
(§1) The H460, MB453, U87, MCF7 and BT474 alamarBlue cell assays provide EC50 values indicative of the antiproliferative or cytotoxic effects of the compounds to respectively the H460 (human non small cell line cancer), MB-453 (breast cancer cell line), U87 (glioblastoma cell line), MCF7 (breast cancer cell line) and BT474 (breast cancer cell line). As known in the field, antiproliferative or cytotoxic effect against this cell lines would be expected to be indicative of activity in treating lung, breast and brain cancers. See R. Marone R et al. Biochim. Biophys. Acta. 2008 January; 1784(1):159-85. S. Yaguchi et al., J. Natl. Cancer Inst. 2006 Apr. 19; 98(8):545-56.
(§2) Method Type: Antiproliferative/Cytotoxicity
(§3) alamarBlue® is designed to provide a rapid and sensitive measure of cell proliferation and cytotoxicity in various human and animal cell lines. The assay is based on the reduction of alamarBlue in the reducing environment of living (metabolically active) cells. In the presence of added cytotoxic or antiproliferative compounds, the innate metabolic activity ceases.
(§4) AlamarBlue is soluble and stable in culture medium. Measurements are made fluorometrically by exciting at 530-560 nm and measuring emission at 590 nm. In reporting percent alamarBlue reduction by monitoring fluorescence, data are expressed as fluorescence emission intensity units as a function of time of incubation.
(§5) 3. Equipment • 96-well plates, flat bottom (Falcon, Cat. No.: 353072) • 96-well plates, U-shaped (Costar, Cat. No.: 3799) • CO2-Incubator • Microplate Reader, Spectramax Plus, Molecular Devices 4. Typical Procedure • Day 0: Seed 3000 BT-474 cells (IMDM/5% FCS, 1% NEAA, 1% Sodiumpyruvat) in 150 μl medium into a 96-well plate, flat bottom (include mediumblank). Incubate plates at 37° C. in a CO2 incubator overnight. • Day 1: Dilute compounds to a concentration 40 μM ->1:3 in medium, 10 dilution steps, in 96-well plates. • Add 50 μl per well of each dilution (total volume per well 200 μl; final conc. of cpds: 10 μM ->1:3). If required, test further dilutions. • All concentrations are tested in duplicates. • Controls: Cells w/o cpd. (+50 μl medium/DMSO). • Cells are incubated with compounds for 5-6 days. • Day 6 or 7: Add 25 μl of alamarBlue solution to each well and incubate for 8 hours at 37° C. Measure fluorescence by exciting at 530-560 nm and measuring emission at 590 nm 5. Evaluation • Subtract average value for medium blank from sample readings • Calculate EC50 using GraphPad Prism (Fifty)

Another assay relates to H460 cells. Description: alamarBlue H460 cell assay (antiproliferative/cytotoxicity). The conditions noted are these: NCI-H460; H460 human lung carcinoma cells. The class given is cell-based.
From the text: as §1, §2, §3, §4, §5

Another assay deals with BT474 cells. Description: alamarBlue BT474 cell assay (antiproliferative/cytotoxicity). In kind it is cell-based. Conditions: BT-474 human breast cancer cell line, 5-6 days incubation.
From the text: as §1, §2, §3, §4, §5
In general terms: The colour change of resazurin is a common sign of viable cells or microbes.

Molecules are shown by their SMILES.

Take `CCc1ncnc(-c2ccc(OC)c(OC)c2OC)c1C#Cc1cnc(C)c(NS(C)(=O)=O)c1` [Example 80, N-{5-[4-Ethyl-6-(2,3,4-trimethoxy-phenyl)-pyrimidin-5-ylethynyl]-2-methyl-pyridin-3-yl}-methanesulfonamide]: the concentration for half-maximal inhibition (IC50) at PI3Kalpha amounted to 43 nM.
For `CCc1nc(N)nc(-c2cccc(CN(C)C)c2)c1C#Cc1cnc(C)c(NS(=O)(=O)c2ccc(F)cc2F)c1` [Example 35, N-{5-[2-Amino-4-(3-dimethylaminomethyl-phenyl)-6-ethyl-pyrimidin-5-ylethynyl]-2-methyl-pyridin-3-yl}-2,4-difluoro-benzenesulfonamide], the 50% inhibitory concentration (IC50) at PI3Kalpha stood at 2 nM.
Consider `CNC(=O)c1ccc(-c2nc(N)nc(C)c2C#Cc2cnc(Cl)c(NS(C)(=O)=O)c2)cc1Cl` [Example 26, 4-[2-Amino-5-(6-chloro-5-methanesulfonylamino-pyridin-3-ylethynyl)-6-methyl-pyrimidin-4-yl]-2-chloro-N-methyl-benzamide], for which the EC50 was 17 nM in the assay with MCF7 cells, 151 nM in the assay with H460 cells and 53 nM with BT474 cells. Besides, the half-inhibitory concentration (IC50) at PI3Kalpha worked out at 0.83 nM.
In the assay on H460 cells, `CCc1nc(N)nc(-c2cccc(F)c2)c1C#Cc1cnc(C)c(NS(C)(=O)=O)c1` [Example 16, N-{5-[2-Amino-4-ethyl-6-(3-fluoro-phenyl)-pyrimidin-5-ylethynyl]-2-methyl-pyridin-3-yl}-methanesulfonamide] returned an EC50 of 337 nM. In addition, at PI3Kalpha, the IC50 amounted to 2 nM.
Take `CCc1ncnc(-c2ccc(OC)c(OC)c2C)c1C#Cc1cnc(C)c(NS(C)(=O)=O)c1` [Example 24, N-{5-[4-(3,4-Dimethoxy-2-methyl-phenyl)-6-ethyl-pyrimidin-5-ylethynyl]-2-methyl-pyridin-3-yl}-methanesulfonamide]: the half-maximal inhibitory concentration (IC50) on PI3Kalpha was 28 nM.
Regarding `CCc1nc(N)nc(-c2cccnc2)c1C#Cc1cnc(C)c(NS(C)(=O)=O)c1` [Example 12, N-[5-(2-Amino-4-ethyl-6-pyridin-3-yl-pyrimidin-5-ylethynyl)-2-methyl-pyridin-3-yl]-methanesulfonamide], the half-maximal effective concentration (EC50) in the assay on H460 cells came out at 1240 nM. Further, the IC50 at PI3Kalpha amounted to 2 nM.
Consider `CCc1ncnc(-c2cccc(CN)c2F)c1C#Cc1cnc(C)c(NS(C)(=O)=O)c1` [Example 79, N-{5-[4-(3-Aminomethyl-2-fluoro-phenyl)-6-ethyl-pyrimidin-5-ylethynyl]-2-methyl-pyridin-3-yl}-methanesulfonamide], for which, at PI3Kalpha, the IC50 stood at 44 nM.
As to `CCc1ncnc(-c2cc(C(F)(F)F)ccc2F)c1C#Cc1cnc(C)c(NS(C)(=O)=O)c1` [Example 67, N-{5-[4-Ethyl-6-(2-fluoro-5-trifluoromethyl-phenyl)-pyrimidin-5-ylethynyl]-2-methyl-pyridin-3-yl}-methanesulfonamide], the half-inhibitory concentration (IC50) on PI3Kalpha was 46 nM.
For `CCS(=O)(=O)Nc1cc(C#Cc2c(C)nc(N)nc2-c2ccnc(C)c2)cnc1C` [Example 20, Ethanesulfonic acid {5-[2-amino-4-methyl-6-(2-methyl-pyridin-4-yl)-pyrimidin-5-ylethynyl]-2-methyl-pyridin-3-yl}-amide], the EC50 with H460 cells was found to be 1820 nM. For the same compound, at PI3Kalpha, the IC50 was determined as 14 nM.
`CCc1ncnc(-c2ccnc(C)c2)c1C#Cc1cnc(C)c(NS(=O)(=O)c2ccc(Br)cc2C)c1` [Example 97, 4-Bromo-N-{5-[4-ethyl-6-(2-methyl-pyridin-4-yl)-pyrimidin-5-ylethynyl]-2-methyl-pyridin-3-yl}-2-methyl-benzenesulfonamide]: on PI3Kalpha, the IC50 stood at 12 nM. The EC50 in the assay with BT474 cells was found to be 1530 nM.
Regarding `CCc1ncnc(-c2ccnc(C)c2)c1C#Cc1cnc(C)c(NS(=O)(=O)c2ccc(F)cc2Cl)c1` [Example 90, 2-Chloro-N-{5-[4-ethyl-6-(2-methyl-pyridin-4-yl)-pyrimidin-5-ylethynyl]-2-methyl-pyridin-3-yl}-4-fluoro-benzenesulfonamide], at PI3Kalpha, the concentration for half-maximal inhibition (IC50) stood at 2 nM.
On to `CCc1nc(N)nc(-c2cccc(CN(C)C)c2)c1C#Cc1cnc(C)c(NS(C)(=O)=O)c1` [Example 19, N-{5-[2-Amino-4-(3-dimethylaminomethyl-phenyl)-6-ethyl-pyrimidin-5-ylethynyl]-2-methyl-pyridin-3-yl}-methanesulfonamide], for which the EC50 in the assay with MCF7 cells is 313 nM; with BT474 cells it was 806 nM. Moreover, the IC50 on PI3Kalpha was determined as 6 nM.
As to `CCc1ncnc(-c2cc(C(F)(F)F)ccc2OC)c1C#Cc1cnc(C)c(NS(C)(=O)=O)c1` [Example 68, N-{5-[4-Ethyl-6-(2-methoxy-5-trifluoromethyl-phenyl)-pyrimidin-5-ylethynyl]-2-methyl-pyridin-3-yl}-methanesulfonamide], at PI3Kalpha, the half-maximal inhibitory concentration (IC50) came out at 136 nM.
Still for that read-out and setting: to `CCc1ncnc(-c2ccccc2C)c1C#Cc1cnc(C)c(NS(C)(=O)=O)c1` [Example 60, N-[5-(4-Ethyl-6-o-tolyl-pyrimidin-5-ylethynyl)-2-methyl-pyridin-3-yl}-methanesulfonamide] belongs 37 nM; to `CCc1ncnc(-c2cc(C#N)ccc2F)c1C#Cc1cnc(C)c(NS(C)(=O)=O)c1` [Example 66, N-{5-[4-(5-Cyano-2-fluoro-phenyl)-6-ethyl-pyrimidin-5-ylethynyl]-2-methyl-pyridin-3-yl}-methanesulfonamide], 34 nM.
In the assay with H460 cells, `CCc1nc(N)nc(-c2ccccc2)c1C#Cc1cnc(C)c(NS(C)(=O)=O)c1` [Example 17, N-[5-(2-Amino-4-ethyl-6-phenyl-pyrimidin-5-ylethynyl)-2-methyl-pyridin-3-yl]-methanesulfonamide] yielded an EC50 of 172 nM. Moreover, the half-maximal inhibitory concentration (IC50) at PI3Kalpha was determined as 2 nM.
On to `CCc1ncnc(-c2cc(CN)ccc2F)c1C#Cc1cnc(C)c(NS(C)(=O)=O)c1` [Example 77, N-{5-[4-(5-Aminomethyl-2-fluoro-phenyl)-6-ethyl-pyrimidin-5-ylethynyl]-2-methyl-pyridin-3-yl}-methanesulfonamide], for which the concentration for half-maximal inhibition (IC50) at PI3Kalpha amounted to 150 nM.
On to `CCc1nc(N)nc(-c2ccc(CN3CCOCC3)cc2)c1C#Cc1cnc(C)c(NS(C)(=O)=O)c1` [Example 18, N-{5-[2-Amino-4-ethyl-6-(4-morpholin-4-ylmethyl-phenyl)-pyrimidin-5-ylethynyl]-2-methyl-pyridin-3-yl}-methanesulfonamide], for which the concentration for a half-maximal effect (EC50) is 118 nM in the assay on MCF7 cells and 260 nM with BT474 cells. Also, the half-maximal inhibitory concentration (IC50) on PI3Kalpha stood at 2 nM.
In the case of `CCc1ncnc(-c2c(C)cccc2C)c1C#Cc1cnc(C)c(NS(C)(=O)=O)c1` [Example 58, N-{5-[4-(2,6-Dimethyl-phenyl)-6-ethyl-pyrimidin-5-ylethynyl]-2-methyl-pyridin-3-yl}-methanesulfonamide], the IC50 on PI3Kalpha amounted to 380 nM.
